Reference: patent publication US20260242330A1, “USE OF AN AMANTADINE MONONITRATE COMPOUND IN MANUFACTURE OF A MEDICAMENT FOR THE PREVENTION AND TREATMENT OF HYPERTENSION” (GUANGZHOU MAGPIE PHARMACEUTICALS CO., LTD., priority 2022, published 2026)

Test system: blood pressure of subjects
Assay: Effect of multiple administrations of MN-08 on blood pressure of subjects (7 days)
Type: in vivo, human
Conditions: for DP / SP: Subject 14; for DP: baseline 84 mmHg; for SP: baseline 122 mmHg
Description: All subjects in the following embodiments have signed informed consent forms, which comply with medical ethics regulations. According to the relevant provisions of Chinese Guidelines for the Prevention and Treatment of Hypertension (2018 Revision), the values measured for hypertension are the average blood pressure measured three times on a different day without the use of antihypertensive drugs. Therefore, in this embodiment, the baseline blood pressure of the subjects before administration is set as the average blood pressure measured at three different times: screening period, occupancy period, and 1 hour before administration, as shown in Tables 1 to 3.
Multiple dosing trials: Participants in each dose group fasted for at least 10 hours before administration, without water deprivation overnight. Each group of subjects received oral administration of the test drug on an empty stomach from day 1 to day 6, twice a day (with an interval of 12 hours and at least 1 hour on an empty stomach before the second administration), and only once in the morning on day 7. A total of 13 doses were administered. The first administration time every day is around 8 am, taken with 240 mL of water. Taking subject 14 as an example, the effect of multiple doses of MN-08 (7 days) on subject blood pressure was investigated.

[1] = 12 mg twice a day, D 1, 2 hrs after 2nd adm.
[2] = 12 mg twice a day, D 1, 4 hrs after 1st adm.
[3] = 12 mg twice a day, D 1, 8 hrs after 1st adm.
[4] = 12 mg twice a day, D 2, 2 hrs after 2nd adm.
[5] = 12 mg twice a day, D 2, 4 hrs after 1st adm.
[6] = 12 mg twice a day, D 2, 8 hrs after 1st adm.
[7] = 12 mg twice a day, D 3, 2 hrs after 2nd adm.
[8] = 12 mg twice a day, D 3, 4 hrs after 1st adm.
[9] = 12 mg twice a day, D 3, 8 hrs after 1st adm.
[10] = 12 mg twice a day, D 4, 2 hrs after 2nd adm.
[11] = 12 mg twice a day, D 4, 4 hrs after 1st adm.
[12] = 12 mg twice a day, D 4, 8 hrs after 1st adm.
[13] = 12 mg twice a day, D 5, 2 hrs after 2nd adm.
[14] = 12 mg twice a day, D 5, 4 hrs after 1st adm.
[15] = 12 mg twice a day, D 5, 8 hrs after 1st adm.
[16] = 12 mg twice a day, D 6, 2 hrs after 2nd adm.
[17] = 12 mg twice a day, D 6, 4 hrs after 1st adm.
[18] = 12 mg twice a day, D 6, 8 hrs after 1st adm.
[19] = 12 mg, once on D 7 after 6 days twice a day, D 7, 4 hrs after adm.
[20] = 12 mg, once on D 7 after 6 days twice a day, D 7, 8 hrs after adm.
[21] = 12 mg, once on D 7 after 6 days twice a day, D 7, 12 hrs after adm.

SMILES: CCC12CC3CC(N)(C1)CC(CO[N+](=O)[O-])(C3)C2 (stereo not shown) [MN-08]
- DP [1]: 73 mmHg
- SP [1]: 113 mmHg
- DP [2]: 81 mmHg
- SP [2]: 122 mmHg
- DP [3]: 74 mmHg
- SP [3]: 114 mmHg
- DP [4]: 77 mmHg
- SP [4]: 107 mmHg
- DP [5]: 76 mmHg
- SP [5]: 115 mmHg
- DP [6]: 68 mmHg
- SP [6]: 117 mmHg
- DP [7]: 73 mmHg
- SP [7]: 109 mmHg
- DP [8]: 74 mmHg
- SP [8]: 114 mmHg
- DP [9]: 82 mmHg
- SP [9]: 111 mmHg
- DP [10]: 73 mmHg
- SP [10]: 109 mmHg
- DP [11]: 73 mmHg
- SP [11]: 109 mmHg
- DP [12]: 70 mmHg
- SP [12]: 107 mmHg
- DP [13]: 74 mmHg
- SP [13]: 114 mmHg
- DP [14]: 69 mmHg
- SP [14]: 106 mmHg
- DP [15]: 62 mmHg
- SP [15]: 97 mmHg
- DP [16]: 77 mmHg
- SP [16]: 125 mmHg
- DP [17]: 77 mmHg
- SP [17]: 118 mmHg
- DP [18]: 63 mmHg
- SP [18]: 112 mmHg
- DP [19]: 77 mmHg
- SP [19]: 108 mmHg
- DP [20]: 62 mmHg
- SP [20]: 102 mmHg
- DP [21]: 62 mmHg
- SP [21]: 103 mmHg
- both systolic and diastolic pressure of the subjects (twice a day for 7 days, decrease in diastolic greater than in systolic pressure): reduced
